This note sets out measurements from patent publication US4172941A, “7-[2-[ω-(1,3-Dit hiolan-2-imino)substituted]-acetylamino]cephalosporanic acid derivatives” (Richardson-Merrell Inc., priority 1978, dated 1979).

In brackets after ≈: the same amount, converted by molar mass.

The subject of one assay is Diplococcus pneumonae. In words: in vitro minimal inhibitory concentration, two-fold serial dilutions in trypticase soy broth. Format: cell-based. To be noted: 24 hours at 37° C. As for the experimental part: (§1) The following example illustrates the in vitro activity of the compounds of this invention.
(§2) Two-fold serial dilutions of the test compounds are made in trypticase soy broth. A series of tubes of broth containing different concentrations of the test compounds are inoculated with the particular bacterial culture used for in vitro activity. The inoculated tubes are examined for the inhibition of bacterial growth after 24 hours of incubation at 37° C. The following table summarizes the minimal inhibitory concentration (MIC) for various bacterial test cultures using the following compounds: […]

A further assay relates to Escherichia coli. Described as above. The conditions noted are these: 24 hours at 37° C. Format: cell-based. The protocol: as §1, §2
Assay [1] has as its system Salmonella schottmuelleri. Described as above. In kind it is cell-based. To be noted: 24 hours at 37° C. The protocol: as §1, §2
The next assay has as its system Staphylococcus aureus. Described as above. In kind it is cell-based. To be noted: 24 hours at 37° C. The protocol:
as §1, §2

Assay [2] relates to Streptococcus pyogenes. The assay is described as above. In kind it is cell-based. The conditions noted are these: 24 hours at 37° C. The protocol: as §1, §2
The subject of assay [3] is Streptococcus pyogenes. In words: in vivo protection of mice challenged with a fatal bacterial infection. To be noted: sc, subcutaneous, 1 and 4 hours after challenge, dose per treatment protecting fifty percent. As for the experimental part: (§3) The following example illustrates the in vivo activity of the compounds of this invention.
(§4) Several groups of 10 mice are challenged with a fatal bacterial infection. Various dose levels of the test compound are administered orally or subcutaneously to separate groups of these animals 1 and 4 hours after challenge. After three of four days, depending upon the test organism, the number of survivors are recorded at each dose level and the dose required per treatment to protect fifty percent of the infected mice (ED50) is calculated by the method described by Reed and Muench, Amer. J. Hyg. 27, 493-497 (1938).

A further assay relates to Diplococcus pneumoniae. The assay is described as above. The conditions noted are these: Streptococcus pneumoniae, 1 and 4 hours after challenge, dose per treatment protecting fifty percent. The protocol:
as §3, §4

The next assay concerns Salmonella schotmuelleri. The description is as above. The conditions noted are these: sc, subcutaneous, 1 and 4 hours after challenge, dose per treatment protecting fifty percent. The protocol:
as §3, §4

Usually MIC stands for the smallest concentration in the dilution series that meets the test's criterion for growth inhibition. Low values mean a more susceptible organism, high ones a less susceptible organism. One may read the ED50 as the midpoint of the dose-response relation. A higher ED50 goes with a need for a large dose.

For the compound `CC(=O)OCC1=C(C(=O)O)N2C(=O)C(NC(=O)C(O)c3ccc(N=C4SCCS4)cc3)C2SC1` (stereo not drawn) [Compound D, 7-[2-[p-(1,3-dithiolan-2-imino)phenyl]-2-hydroxyacetylamino]cephalosporanic acid], the MIC against Diplococcus pneumonae was under 0.05 µg/mL; against Escherichia coli it was 200 µg/mL (≈ 382 µM); in assay [1], 50 µg/mL (≈ 95.5 µM); against Staphylococcus aureus, 0.4 µg/mL (≈ 0.764 µM); against Streptococcus pyogenes [2], under 0.05 µg/mL. It took a dose of 2.2 mg/kg to reach the 50% effect level with Streptococcus pyogenes [3] (ED50).
Regarding `CC1=C(C(=O)O)N2C(=O)C(NC(=O)C(N)c3ccc(N=C4SCCS4)cc3)C2SC1` (stereo not drawn) [Compound C, 7-[2-amino-2-[p-(1,3-dithiolan-2-imino)phenyl]acetylamino]desacetoxycephalosporanic acid], the minimum inhibitory concentration (MIC) in the assay with Diplococcus pneumonae is at most 0.05 µg/mL; against Escherichia coli, over 100 µg/mL; in assay [1], over 100 µg/mL; against Staphylococcus aureus it was 3.1 µg/mL (≈ 6.67 µM); in the assay on Streptococcus pyogenes [2] it was at most 0.05 µg/mL. Also, the ED50 in the assay with Diplococcus pneumoniae (po, per os) is 4.1 mg/kg; in the assay with Diplococcus pneumoniae (sc, subcutaneous), 5 mg/kg; with Salmonella schotmuelleri, over 100 mg/kg; with Streptococcus pyogenes [3], 0.5 mg/kg.
Consider `CC1=C(C(=O)O)N2C(=O)C(NC(=O)C(N=C3SCCS3)c3ccccc3)C2SC1` (stereo not drawn) [Compound B, 7-[2-(1,3-dithiolan-2-imino)-2-phenylacetylamino]desacetoxycephalosporanic acid], for which the MIC was 12.5 µg/mL (≈ 27.8 µM) with Diplococcus pneumonae; over 100 µg/mL in the assay with Escherichia coli; over 100 µg/mL in assay [1]; 25 µg/mL (≈ 55.6 µM) against Staphylococcus aureus; 6.2 µg/mL (≈ 13.8 µM) in the assay on Streptococcus pyogenes [2]. The ED50 in the assay with Streptococcus pyogenes [3] stood at 48 mg/kg.
`CC(=O)OCC1=C(C(=O)O)N2C(=O)C(NC(=O)CN=C3SCCS3)C2SC1` (stereo not drawn) [Compound A, 7-[2-(1,3-dithiolan-2-imino)acetylamino]cephalosporanic acid]: the MIC was 0.1 µg/mL (≈ 0.232 µM) against Diplococcus pneumonae; 50 µg/mL (≈ 116 µM) with Escherichia coli; 12.5 µg/mL (≈ 29 µM) in assay [1]; 0.4 µg/mL (≈ 0.927 µM) against Staphylococcus aureus; 0.4 µg/mL (≈ 0.927 µM) with Streptococcus pyogenes [2]. The ED50 with Streptococcus pyogenes [3] worked out at 15.3 mg/kg.
